ChEMBL document CHEMBL2321853, “Novel acylethanolamide derivatives that modulate body weight through enhancement of hypothalamic pro-opiomelanocortin (POMC) and/or decreased neuropeptide Y (NPY)” (J Med Chem, 2013)
Calls of active or inactive are those of the source. The rule behind the calls is not given here.

Legend:
Mus musculus [1] = test: Antiobesity activity in Sabra mouse assessed as change in food consumption at 1 mg/kg, ip administered on day 8, 9, 10, 11, 14, 18, 24 and 32 measured after 3 weeks relative to control; type: functional; details: route intraperitoneal
Mus musculus [2] = test: Antiobesity activity in high fat diet fed C57BL/6 mouse assessed as reduction in body weight at 1 mg/kg, ip administered on day 3, 6, 8, 9, 10 measured on day 9 relative to control; type: functional; parameters: scale not given: the % may be the effect or the level left; details: route intraperitoneal
Mus musculus [3] = test: Enhancement of motor activity C57BL/6 mouse assessed as reduction food consumption at 1 mg/kg, ip administered on day 3, 6, 8, 9, 10 measured on day 10; type: functional, organism-based; parameters: dose 1 mg/kg
Mus musculus [4] = test: Antiobesity activity in high fat diet fed C57BL/6 mouse assessed as reduction in body weight at 1 mg/kg, ip administered on day 3, 6, 8, 9, 10 measured on day 10 relative to control; type: functional; parameters: scale not given: the % may be the effect or the level left; details: route intraperitoneal
Mus musculus [5] = test: Antiobesity activity in C57BL/6 mouse assessed as change in cholesterol level at 5 mg/kg, ip measured on day 36 (reference value: 86.58 mg/dL); type: functional; details: route intraperitoneal
Hypothalamus = test: Effect on FAAH gene expression in Sabra mouse hypothalamus assessed as change in mRNA level at 1 mg/kg, ip administered on day 8, 9, 10, 11, 14, 18, 24 and 32 by RT-PCR analysis relative to GAPDH; type: functional; details: route intraperitoneal

For `CCCCCCCC/C=C\CCCCCCCC(=O)N[C@H](CO)C(C)C`, the Activity (Mus musculus [1]) was 91.2%, the Activity (Mus musculus [2]) was -3.1% and the Activity (Mus musculus [3]) was “Active”. It also gave an Activity (Mus musculus [4]) of -6.3%, an Activity (Mus musculus [5]) of 83.01 mg/dL and an Activity (Hypothalamus) of -33%.
